{"source": "patent US9926302B2", "about": "“Heteroaryl substituted heterocyclyl sulfones” (priority 2014, dated 2018)", "target": "T1, Human CaV2.2 channels (Homo sapiens, UniProt Q00975)", "T1 construct": "expressed in transfected cells", "T1 sequence (P54289 947-1103)": "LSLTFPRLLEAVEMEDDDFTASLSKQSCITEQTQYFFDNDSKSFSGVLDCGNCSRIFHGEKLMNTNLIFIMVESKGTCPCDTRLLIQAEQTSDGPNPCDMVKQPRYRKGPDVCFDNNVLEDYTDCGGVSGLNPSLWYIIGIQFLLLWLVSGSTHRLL", "T1 sequence (P54289 25-946)": "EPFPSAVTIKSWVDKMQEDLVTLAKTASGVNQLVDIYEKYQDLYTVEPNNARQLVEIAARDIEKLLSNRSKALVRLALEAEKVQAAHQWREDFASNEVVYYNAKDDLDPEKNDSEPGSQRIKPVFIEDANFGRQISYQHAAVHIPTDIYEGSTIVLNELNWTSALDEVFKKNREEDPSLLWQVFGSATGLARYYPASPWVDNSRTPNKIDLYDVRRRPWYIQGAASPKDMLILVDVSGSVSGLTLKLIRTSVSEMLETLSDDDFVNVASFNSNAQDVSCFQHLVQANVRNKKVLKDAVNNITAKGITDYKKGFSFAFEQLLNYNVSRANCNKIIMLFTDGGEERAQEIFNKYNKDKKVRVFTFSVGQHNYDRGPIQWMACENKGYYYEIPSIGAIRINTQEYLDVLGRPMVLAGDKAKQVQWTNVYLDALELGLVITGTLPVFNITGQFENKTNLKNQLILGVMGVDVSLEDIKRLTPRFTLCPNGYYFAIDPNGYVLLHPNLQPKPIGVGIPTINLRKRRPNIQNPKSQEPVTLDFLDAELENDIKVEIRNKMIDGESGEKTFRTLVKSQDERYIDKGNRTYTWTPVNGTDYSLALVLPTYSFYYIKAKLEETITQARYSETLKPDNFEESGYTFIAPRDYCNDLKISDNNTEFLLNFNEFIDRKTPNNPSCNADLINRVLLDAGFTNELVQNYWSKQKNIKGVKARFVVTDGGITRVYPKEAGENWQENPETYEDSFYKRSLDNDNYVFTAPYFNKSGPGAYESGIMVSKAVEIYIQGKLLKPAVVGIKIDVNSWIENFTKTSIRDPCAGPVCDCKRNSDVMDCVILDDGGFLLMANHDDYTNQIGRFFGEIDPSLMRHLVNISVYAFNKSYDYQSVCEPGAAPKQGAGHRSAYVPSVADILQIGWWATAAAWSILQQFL", "T1 sequence (P54284 whole entry, further chain)": "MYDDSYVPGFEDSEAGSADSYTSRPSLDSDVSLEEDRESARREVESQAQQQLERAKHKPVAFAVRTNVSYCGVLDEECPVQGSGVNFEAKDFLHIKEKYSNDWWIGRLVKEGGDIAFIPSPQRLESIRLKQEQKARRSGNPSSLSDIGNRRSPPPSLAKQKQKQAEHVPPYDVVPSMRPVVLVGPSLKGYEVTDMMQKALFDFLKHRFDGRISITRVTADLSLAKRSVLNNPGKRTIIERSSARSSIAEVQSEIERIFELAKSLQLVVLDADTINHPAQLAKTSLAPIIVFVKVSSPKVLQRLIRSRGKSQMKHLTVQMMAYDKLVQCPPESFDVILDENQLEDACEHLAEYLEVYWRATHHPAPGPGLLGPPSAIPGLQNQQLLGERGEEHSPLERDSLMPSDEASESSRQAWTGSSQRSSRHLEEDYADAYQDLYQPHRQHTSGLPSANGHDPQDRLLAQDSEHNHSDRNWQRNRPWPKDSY", "T1 sequence (Q00975 whole entry)": "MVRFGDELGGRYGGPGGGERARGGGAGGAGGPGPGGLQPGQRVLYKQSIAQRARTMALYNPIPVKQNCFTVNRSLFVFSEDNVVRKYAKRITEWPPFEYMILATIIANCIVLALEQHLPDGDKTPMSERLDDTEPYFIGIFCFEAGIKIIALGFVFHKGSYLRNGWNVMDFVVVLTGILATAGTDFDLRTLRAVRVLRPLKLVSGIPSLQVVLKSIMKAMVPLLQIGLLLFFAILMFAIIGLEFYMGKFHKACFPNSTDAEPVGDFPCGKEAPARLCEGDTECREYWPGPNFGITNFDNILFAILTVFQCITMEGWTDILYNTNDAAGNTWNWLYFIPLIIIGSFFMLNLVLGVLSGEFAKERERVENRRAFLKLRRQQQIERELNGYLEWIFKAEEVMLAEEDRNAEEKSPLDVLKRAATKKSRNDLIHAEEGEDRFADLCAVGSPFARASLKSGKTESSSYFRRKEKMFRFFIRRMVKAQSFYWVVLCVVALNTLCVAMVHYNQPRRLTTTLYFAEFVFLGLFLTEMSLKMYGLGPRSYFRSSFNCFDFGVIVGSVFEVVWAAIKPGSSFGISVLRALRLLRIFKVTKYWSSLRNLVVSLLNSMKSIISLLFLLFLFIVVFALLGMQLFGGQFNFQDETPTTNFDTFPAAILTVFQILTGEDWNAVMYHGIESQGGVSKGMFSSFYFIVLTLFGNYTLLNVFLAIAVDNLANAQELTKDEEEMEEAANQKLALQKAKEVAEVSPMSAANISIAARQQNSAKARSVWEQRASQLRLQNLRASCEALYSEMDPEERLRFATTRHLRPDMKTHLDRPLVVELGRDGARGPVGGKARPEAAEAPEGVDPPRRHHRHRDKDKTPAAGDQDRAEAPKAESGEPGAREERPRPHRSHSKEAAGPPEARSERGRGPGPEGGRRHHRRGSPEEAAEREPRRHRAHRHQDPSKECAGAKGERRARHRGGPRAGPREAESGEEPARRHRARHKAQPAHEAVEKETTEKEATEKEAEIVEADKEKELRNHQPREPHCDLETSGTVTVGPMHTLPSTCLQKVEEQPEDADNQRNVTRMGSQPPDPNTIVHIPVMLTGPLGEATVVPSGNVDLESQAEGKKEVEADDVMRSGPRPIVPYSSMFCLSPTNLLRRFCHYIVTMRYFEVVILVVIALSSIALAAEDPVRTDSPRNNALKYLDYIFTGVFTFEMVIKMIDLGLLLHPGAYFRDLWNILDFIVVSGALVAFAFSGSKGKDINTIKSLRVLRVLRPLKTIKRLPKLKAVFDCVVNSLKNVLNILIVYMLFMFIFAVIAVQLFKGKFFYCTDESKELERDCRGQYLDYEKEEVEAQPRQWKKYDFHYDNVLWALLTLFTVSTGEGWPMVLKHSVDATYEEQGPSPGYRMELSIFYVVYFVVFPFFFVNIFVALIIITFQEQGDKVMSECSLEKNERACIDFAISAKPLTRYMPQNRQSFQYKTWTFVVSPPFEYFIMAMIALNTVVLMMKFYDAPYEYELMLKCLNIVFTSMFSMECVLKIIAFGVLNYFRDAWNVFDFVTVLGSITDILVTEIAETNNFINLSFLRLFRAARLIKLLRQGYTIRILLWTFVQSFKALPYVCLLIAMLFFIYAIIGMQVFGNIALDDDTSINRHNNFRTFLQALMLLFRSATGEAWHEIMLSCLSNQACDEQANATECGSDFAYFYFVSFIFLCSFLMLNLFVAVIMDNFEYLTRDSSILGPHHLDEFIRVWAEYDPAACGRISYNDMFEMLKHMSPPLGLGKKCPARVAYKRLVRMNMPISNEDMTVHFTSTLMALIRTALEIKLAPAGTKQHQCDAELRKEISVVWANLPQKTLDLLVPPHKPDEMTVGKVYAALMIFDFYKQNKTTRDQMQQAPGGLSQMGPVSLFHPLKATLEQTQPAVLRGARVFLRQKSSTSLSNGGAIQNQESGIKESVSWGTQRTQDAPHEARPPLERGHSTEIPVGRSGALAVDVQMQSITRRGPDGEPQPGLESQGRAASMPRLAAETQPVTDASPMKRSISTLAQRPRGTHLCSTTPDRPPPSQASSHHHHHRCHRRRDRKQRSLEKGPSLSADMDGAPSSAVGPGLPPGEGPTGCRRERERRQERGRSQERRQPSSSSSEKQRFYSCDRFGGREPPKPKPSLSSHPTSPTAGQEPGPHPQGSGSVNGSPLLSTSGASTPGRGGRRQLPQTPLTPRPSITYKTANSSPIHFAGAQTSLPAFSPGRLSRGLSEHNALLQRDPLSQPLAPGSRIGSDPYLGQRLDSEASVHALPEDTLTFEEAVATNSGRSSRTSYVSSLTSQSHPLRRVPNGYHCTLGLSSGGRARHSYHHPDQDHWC", "assay": "Fluorescence assay for CaV2.2 channels using potassium depolarization to induce channel opening (FLIPR, Fluo 4)", "type": "cell-based", "conditions": "alternative assay buffer 30 mM KCl (inactivated channel state), HEK293 cells stably expressing human CaV2.2; for inhibition at 3 µM: HEK293, 3 μM test compound, read-out: Activity Category: %-Inhib (CaV2.2) @3 μM @30 mM KCl; for Activity Category: %-Inhib (CaV2.2) @3 μM @30 mM KCl: 3 μM test compound", "description": "In the process, the Ca^2+ influx is quantified in the FLIPR assay with the aid of a Ca^2+-sensitive dye (type Fluo-4, Molecular Probes Europe BV, Leiden, the Netherlands) in a fluorescent imaging plate reader (FLIPR 3, Molecular Devices, Sunnyvale, USA), as described hereinafter.\n2.1 Fluorescence Assay for CaV2.2 Channels Using Potassium Depolarization to Induce Channel Opening\nHuman CaV2.2 channels were stably expressed in HEK293 cells together with alpha2-delta and beta subunits of voltage gated calcium channels. In addition, an inwardly rectifying potassium channel (Kir2.3) was stably expressed in these cells to augment control of the cell membrane potential by the concentration of extracellular potassium ions. Raise of the extracellular potassium concentration leads to depolarization of the membrane potential and thus regulates the voltage dependent state of CaV2.2 channels. For preparation, cells were seeded in black poly-D-lysine coated 96-well plates (Becton Dickinson, Biocoat 4640) in 100 μL medium [500 mL DMEM/F-12 plus Glutamax (Invitrogen 31331-093) plus 5.5 mL MEM NEAA 100× (Invitrogen 11140-035) plus 50 mL FBS decomplemented (Invitrogen 10270-106) plus 200 μg/mL Geneticin (Invitrogen 10131-027) plus 50 μg/mL Hygromycin B (Invitrogen 10687-010) plus 2 μg/mL Blasticidin (anti-bl5b Invivo-Gen) plus 0.2 μg/mL Puromycin (A 11138-03)] at a cell density of 30.000 cells per well. Plates were incubated at 37° C. (5% CO2) for 20 to 23 h. On the day of experiment medium was discarded and cells were loaded with Fluo 4 by addition of 100 μL of basic assay buffer (10 mM HEPES, 1 mM KCl, 149 mM NaCl, 0.8 mM CaCl2, 1.7 mM MgCl2, 10 mM Glucose, 0.1% BSA. pH 7.4) containing 2 μM Fluo 4 (Molecular Probes; F-14201), 0.01% pluronic acid (Molecular Probes; P-6866) and 2.5 mM probenecid (Molecular Probes; P36400). Cells were incubated in the dark at 25° C. for 60 min. Then dye containing buffer was discarded and 100 μL basic (1 mM KCl) or alternative (30 mM KCl) assay buffer was added. The alternative assay buffer contained altered concentrations of KCl (30 mM) and NaCl (120 mM) and was used in order to promote the inactivated channel state. After that 25 μL of basic or alternative assay buffer with or without test compound were added and cells were incubated again in the dark at 25° C. for 15 min. Fluorescence intensity was measured on a FLIPR 3 instrument (Molecular Devices Corp., Sunnyvale, Calif.) with excitation at 480 nm and emission at 535 nm. After continuously reading fluorescence for 30 sec, 50 μL of basic assay buffer containing 210 mM KCl (NaCl omitted) were added for depolarization. Peak fluorescent signal intensity was determined and the amplitude of the peak signal, normalized to base line, was used to measure channel inhibition by test compounds."}
{"smiles": "Cc1cc(S(C)(=O)=O)cnc1C1CC(C)(S(=O)(=O)c2cccc(OC(F)(F)F)c2)CCO1", "note": "(racemic) [SC-451, 3-Methyl-5-methylsulfonyl-2-[4-methyl-4-[[3-(trifluoromethyloxy)-phenyl]sulfonyl]-tetrahydro-pyran-2-yl]-pyridine]", "values": [{"measurement": "inhibition at 3 µM", "value": "40 to 75", "unit": "%"}]}
{"smiles": "CC1(S(=O)(=O)c2cccc(C(F)(F)F)c2)CCOC(c2noc(C3CC3)n2)C1", "note": "(single isomer, unassigned) [SC-110, 5-Cyclopropyl-3-[4-methyl-4-[[3-(trifluoromethyl)phenyl]sulfonyl]-tetrahydro-pyran-2-yl]-[1,2,4]oxadiazole]", "values": [{"measurement": "inhibition at 3 µM", "value": "75 to 95", "unit": "%"}]}
{"smiles": "Cc1ccc(OCC2CC(C)(S(=O)(=O)c3cccc(C(F)(F)F)c3)CCO2)cn1", "note": "(single isomer, unassigned) [SC-112, 2-Methyl-5-[[4-methyl-4-[[3-(trifluoromethyl)phenyl]sulfonyl]-tetrahydro-pyran-2-yl]-methoxy]-pyridine]", "values": [{"measurement": "Activity Category: %-Inhib (CaV2.2) @3 μM @30 mM KCl", "value": "C (%-Inhibition >40% up to ≤75%)"}]}
{"smiles": "Cc1ccc(OCC2CC(C)(S(=O)(=O)c3cccc(C(F)(F)F)c3)CCO2)cn1", "note": "(single isomer, unassigned) [SC-113, 2-Methyl-5-[[4-methyl-4-[[3-(trifluoromethyl)phenyl]sulfonyl]-tetrahydro-pyran-2-yl]-methoxy]-pyridine]", "values": [{"measurement": "Activity Category: %-Inhib (CaV2.2) @3 μM @30 mM KCl", "value": "B (%-Inhibition >75% up to ≤95%)"}]}
{"smiles": "CC1(S(=O)(=O)c2cccc(C(F)(F)F)c2)CCOC(c2cncc(C(F)(F)F)c2)C1", "note": "(single isomer, unassigned) [SC-115, 3-[4-Methyl-4-[[3-(trifluoromethyl)phenyl]sulfonyl]-tetrahydro-pyran-2-yl]-5-(trifluoromethyl)-pyridine]", "values": [{"measurement": "inhibition at 3 µM", "value": "75 to 95", "unit": "%"}]}
{"smiles": "CC1(S(=O)(=O)c2cccc(C(F)(F)F)c2)CCOC(c2cncc(C(F)(F)F)c2)C1", "note": "(single isomer, unassigned) [SC-116, 3-[4-Methyl-4-[[3-(trifluoromethyl)phenyl]sulfonyl]-tetrahydro-pyran-2-yl]-5-(trifluoromethyl)-pyridine]", "values": [{"measurement": "Activity Category: %-Inhib (CaV2.2) @3 μM @30 mM KCl", "value": "A (%-Inhibition >95%)"}]}
{"smiles": "CC1(S(=O)(=O)c2cccc(C(F)(F)F)c2)CCOC(COc2ccc(C3CC3)nc2)C1", "note": "(single isomer, unassigned) [SC-117, 2-Cyclopropyl-5-[[4-methyl-4-[[3-(trifluoromethyl)phenyl]sulfonyl]-tetrahydro-pyran-2-yl]-methoxy]-pyridine]", "values": [{"measurement": "Activity Category: %-Inhib (CaV2.2) @3 μM @30 mM KCl", "value": "B (%-Inhibition >75% up to ≤95%)"}]}
{"smiles": "CC1(S(=O)(=O)c2cccc(C(F)(F)F)c2)CCOC(COc2ccc(C3CC3)nc2)C1", "note": "(single isomer, unassigned) [SC-118, 2-Cyclopropyl-5-[[4-methyl-4-[[3-(trifluoromethyl)phenyl]sulfonyl]-tetrahydro-pyran-2-yl]-methoxy]-pyridine]", "values": [{"measurement": "inhibition at 3 µM", "value": "> 95", "unit": "%"}]}
{"smiles": "CC1(S(=O)(=O)c2cccc(C(F)(F)F)c2)CCOC(c2ncc(S(C)(=O)=O)cc2F)C1", "note": "(single isomer, unassigned) [SC-119, 3-Fluoro-5-methylsulfonyl-2-[4-methyl-4-[[3-(trifluoromethyl)phenyl]sulfonyl]-tetrahydro-pyran-2-yl]-pyridine]", "values": [{"measurement": "inhibition at 3 µM", "value": "75 to 95", "unit": "%"}]}
{"smiles": "CC1(S(=O)(=O)c2cccc(C(F)(F)F)c2)CCOC(c2nnc(C(F)(F)F)o2)C1", "note": "(single isomer, unassigned) [SC-121, 2-[4-Methyl-4-[[3-(trifluoromethyl)phenyl]sulfonyl]-tetrahydro-pyran-2-yl]-5-(trifluoromethyl)-[1,3,4]oxadiazole]", "values": [{"measurement": "Activity Category: %-Inhib (CaV2.2) @3 μM @30 mM KCl", "value": "C (%-Inhibition >40% up to ≤75%)"}]}
{"smiles": "CC1(S(=O)(=O)c2cccc(C(F)(F)F)c2)CCOC(c2nnc(C(F)(F)F)o2)C1", "note": "(single isomer, unassigned) [SC-122, 2-[4-Methyl-4-[[3-(trifluoromethyl)phenyl]sulfonyl]-tetrahydro-pyran-2-yl]-5-(trifluoromethyl)-[1,3,4]oxadiazole]", "values": [{"measurement": "Activity Category: %-Inhib (CaV2.2) @3 μM @30 mM KCl", "value": "B (%-Inhibition >75% up to ≤95%)"}]}
{"smiles": "CC1(S(=O)(=O)c2cccc(C(F)(F)F)c2)CCOC(c2nnc(C(F)F)o2)C1", "note": "(single isomer, unassigned) [SC-123, 2-(Difluoro-methyl)-5-[4-methyl-4-[[3-(trifluoromethyl)phenyl]sulfonyl]-tetrahydro-pyran-2-yl]-[1,3,4]oxadiazole]", "values": [{"measurement": "Activity Category: %-Inhib (CaV2.2) @3 μM @30 mM KCl", "value": "B (%-Inhibition >75% up to ≤95%)"}]}
{"smiles": "CC1(S(=O)(=O)c2cccc(C(F)(F)F)c2)CCOC(c2nnc(C(F)F)o2)C1", "note": "(single isomer, unassigned) [SC-124, 2-(Difluoro-methyl)-5-[4-methyl-4-[[3-(trifluoromethyl)phenyl]sulfonyl]-tetrahydro-pyran-2-yl]-[1,3,4]oxadiazole]", "values": [{"measurement": "Activity Category: %-Inhib (CaV2.2) @3 μM @30 mM KCl", "value": "C (%-Inhibition >40% up to ≤75%)"}]}
{"smiles": "CC(C)c1nnc(C2CC(C)(S(=O)(=O)c3cccc(C(F)(F)F)c3)CCO2)o1", "note": "(single isomer, unassigned) [SC-125, 2-Isopropyl-5-[4-methyl-4-[[3-(trifluoromethyl)phenyl]sulfonyl]-tetrahydro-pyran-2-yl]-[1,3,4]oxadiazole]", "values": [{"measurement": "Activity Category: %-Inhib (CaV2.2) @3 μM @30 mM KCl", "value": "C (%-Inhibition >40% up to ≤75%)"}]}
{"smiles": "CC(C)c1nnc(C2CC(C)(S(=O)(=O)c3cccc(C(F)(F)F)c3)CCO2)o1", "note": "(single isomer, unassigned) [SC-126, 2-Isopropyl-5-[4-methyl-4-[[3-(trifluoromethyl)phenyl]sulfonyl]-tetrahydro-pyran-2-yl]-[1,3,4]oxadiazole]", "values": [{"measurement": "Activity Category: %-Inhib (CaV2.2) @3 μM @30 mM KCl", "value": "B (%-Inhibition >75% up to ≤95%)"}]}
{"smiles": "CC1(S(=O)(=O)c2cccc(C(F)(F)F)c2)CCOC(c2nnc(C3CC3)o2)C1", "note": "(single isomer, unassigned) [SC-128, 2-Cyclopropyl-5-[4-methyl-4-[[3-(trifluoromethyl)phenyl]sulfonyl]-tetrahydro-pyran-2-yl]-[1,3,4]oxadiazole]", "values": [{"measurement": "Activity Category: %-Inhib (CaV2.2) @3 μM @30 mM KCl", "value": "B (%-Inhibition >75% up to ≤95%)"}]}
{"smiles": "CC1(S(=O)(=O)c2cccc(C(F)(F)F)c2)CCOC(c2nnc(C3CC3)o2)C1", "note": "(single isomer, unassigned) [SC-129, 2-Cyclopropyl-5-[4-methyl-4-[[3-(trifluoromethyl)phenyl]sulfonyl]-tetrahydro-pyran-2-yl]-[1,3,4]oxadiazole]", "values": [{"measurement": "Activity Category: %-Inhib (CaV2.2) @3 μM @30 mM KCl", "value": "C (%-Inhibition >40% up to ≤75%)"}]}
{"smiles": "CC1(S(=O)(=O)c2cccc(C(F)(F)F)c2)CCOC(c2ncc(S(C)(=O)=O)cc2Cl)C1", "note": "(single isomer, unassigned) [SC-130, 3-Chloro-5-methylsulfonyl-2-[4-methyl-4-[[3-(trifluoromethyl)phenyl]sulfonyl]-tetrahydro-pyran-2-yl]-pyridine]", "values": [{"measurement": "inhibition at 3 µM", "value": "75 to 95", "unit": "%"}]}
{"smiles": "CC1(S(=O)(=O)c2cccc(C(F)(F)F)c2)CCOC(COc2cnc(C3CC3)cn2)C1", "note": "(single isomer, unassigned) [SC-132, 2-Cyclopropyl-5-[[4-methyl-4-[[3-(trifluoromethyl)phenyl]sulfonyl]-tetrahydro-pyran-2-yl]-methoxy]-pyrazine]", "values": [{"measurement": "inhibition at 3 µM", "value": "75 to 95", "unit": "%"}]}
{"smiles": "CC1(S(=O)(=O)c2cccc(C(F)(F)F)c2)CCOC(COc2cnc(C3CC3)cn2)C1", "note": "(single isomer, unassigned) [SC-133, 2-Cyclopropyl-5-[[4-methyl-4-[[3-(trifluoromethyl)phenyl]sulfonyl]-tetrahydro-pyran-2-yl]-methoxy]-pyrazine]", "values": [{"measurement": "Activity Category: %-Inhib (CaV2.2) @3 μM @30 mM KCl", "value": "A (%-Inhibition >95%)"}]}
{"smiles": "CC1(S(=O)(=O)c2cccc(C(F)(F)F)c2)CCOC(c2cncc(S(C)(=O)=O)c2)C1", "note": "(stereo not shown) [SC-100, 3-Methylsulfonyl-5-[4-methyl-4-[[3-(trifluoromethyl)phenyl]sulfonyl]-tetrahydro-pyran-2-yl]-pyridine]", "values": [{"measurement": "Activity Category: %-Inhib (CaV2.2) @3 μM @30 mM KCl", "value": "C (%-Inhibition >40% up to ≤75%)"}]}
{"smiles": "CC1(S(=O)(=O)c2cccc(C(F)(F)F)c2)CCOC(c2cncc(S(C)(=O)=O)c2)C1", "note": "(stereo not shown) [SC-101, 3-Methylsulfonyl-5-[4-methyl-4-[[3-(trifluoromethyl)phenyl]sulfonyl]-tetrahydro-pyran-2-yl]-pyridine]", "values": [{"measurement": "Activity Category: %-Inhib (CaV2.2) @3 μM @30 mM KCl", "value": "B (%-Inhibition >75% up to ≤95%)"}]}
